Source: US11084830B2, “Five-membered non aromatic ring-pyrimidine HIV-1 reverse transcriptase inhibitor, preparation method therefor, and uses thereof” (priority 2018, dated 2021)
Where two headings read alike, the source gives them in different places.

Columns and labels:
[1] = test system: NNRTI-resistant double-mutant strain K103N+Y181C (RES056); test: microbe, parasite or virus in culture; format: cell-based, HIV-1; conditions: for EC50: Human immunodeficiency virus 1, MT4, read-out: EC50 RES056; for SI RES056: selectivity index, ratio of CC50/EC50, strain RES056
Experimental: (§1) Antiviral potency was evaluated in MT-4 cell cultures infected with WT HIV-1 strain (IllB) as well as cells infected with a panel of NNRTI-resistant double-mutant strain K103N+Y181C (RES056).
(§2) Selected compounds were screened for inhibitory activity against HIV-1 using MTT method as describe previously by Christophe. Pannecouque et al. Nat. Protoc. […] And in vitro anti-HIV activity of compounds were supported by Rega Institute for Medical Research. The MTT assay is based on the reduction of the yellow colored 3-(4,5-dimethylthiazol-2-yl)-2,5-diphenyltetrazolium bromide (MTT) by mitochondrial dehydrogenases of metabolically active cells to a blue formazan which can be measured spectrophotometrically. Tested optical density served as an indicator for live cells, and survival rate can be concluded by testing the optical density of 540 nm and 690 nm. MT-4 cells infected with HIV-1 can only survive for 5 to 7 days without any treatment, but when HIV-1 inhibitors were added, they can protect MT-4 cell from cytopathic. Serial solution of compounds was added to MT-4 cells after infected with HIV-1, MTT method was used to detect the survival rate after culture for 5 to 7 days.
(§3) (1) MT-4 cells infected with HIV-1 viral strains (IIIB, Y181C/K103N) were provided by Rega Institute for Medical Research, Katholieke Universiteit Leuven, Belgium.
(§4) (3) Preparation of compounds: Stock solutions (10×final concentration) of test compounds is diluted with double distilled H2O for 5 folds and 5 concentrations of one compound are prepared.
(§5) (5) Test method (MTT method): Serial five-fold dilutions of test compounds were added to cultured MT-4 cells infected with HIV-1, after 5 to 7 days, MTT was added and cultured for a few hours.
(§6) The MTT method was described briefly as follows: stock solutions (10×final concentration) of test compounds were added in 25 μL volumes to two series of triplicate wells in order to allow simultaneous evaluation of the effects on mock- and HIV-infected cells. Using a Biomek 3000 robot (Beckman Instruments, Fullerton, Calif.), serial five-fold dilutions of the test compounds (final 200 μL volume per well) were made directly in flat-bottomed 96-well microtiter trays, including untreated control HIV-1 and mock-infected cell samples for each sample. […] Mock-infected cells were used to evaluate the effect of test compounds on uninfected cells to assess cytotoxicity. Exponentially growing MT-4 cells were centrifuged for 5 min at 1000 rpm and the supernatant was discarded. […] At five days after infection, the viability of mock- and HIV-infected cells was determined spectrophotometrically by means of MTT assay.
(§7) The MTT assay is based on the reduction of yellow-colored MTT (Acros Organics, Geel, Belgium) by mitochondrial dehydrogenase of metabolically active cells to form a blue-purple formazan that can be measured spectrophotometrically. The absorbances were read in an eight-channel computer-controlled photometer, at the wavelengths of 540 and 690 nm. All data were calculated using the median optical density (OD) value of three wells.

[2] = test system: mock-infected MT-4 cells; test: Cytotoxicity in mock-infected MT-4 cells, MTT method; format: cell-based; conditions: human, 5 days
Experimental: (§8) The MTT method was described briefly as follows: stock solutions (10×final concentration) of test compounds were added in 25 μL volumes to two series of triplicate wells in order to allow simultaneous evaluation of the effects on mock- and HIV-infected cells. Using a Biomek 3000 robot (Beckman Instruments, Fullerton, Calif.), serial five-fold dilutions of the test compounds (final 200 μL volume per well) were made directly in flat-bottomed 96-well microtiter trays, including untreated control HIV-1 and mock-infected cell samples for each sample. HIV-1 (IIIB) and mutant HIV-1 strains stock (50 μL at 100-300 CCID50) or culture medium was added to either the infected or mock-infected wells of the microtiter tray. Mock-infected cells were used to evaluate the effect of test compounds on uninfected cells to assess cytotoxicity. Exponentially growing MT-4 cells were centrifuged for 5 min at 1000 rpm and the supernatant was discarded. The MT-4 cells were resuspended at 6×10^5 cells/mL, and 50 μL aliquots were transferred to the microtiter tray wells. At five days after infection, the viability of mock- and HIV-infected cells was determined spectrophotometrically by means of MTT assay.
as §7

[3] = test system: WT HIV-1 strain (IIIB); test: Anti-HIV-1 activity in MT-4 cells, MTT method, wild-type strain IIIB; format: cell-based; conditions: for SI IIIB: selectivity index, ratio of CC50/EC50, strain IIIB; for EC50: Human immunodeficiency virus 1, IIIB, MT4, read-out: EC50 IIIB
Experimental: as §1, §2, §3, §4, §5, §6, §7

[4] = Cytotoxicity in mock-infected MT-4 cells, MTT method; format: cell-based; conditions: human
Experimental: as §8, §7

[5] = concentration reducing viability of mock-infected MT-4 cell cultures by 50%, MTT method, read-out: CC50

Cc1cc(C#N)cc(C)c1Oc1nc(NC2CCN(Cc3ccc(S(N)(=O)=O)cc3)CC2)nc2c1SCC2 [Compound A1, 4-((4-((4-(4-cyano-2,6-dimethylphenoxy)-6,7-dihydrothieno[3,2-d]pyrimidin-2-yl)amino)piperidin-1-yl)methyl)benzenesulfonamide]
EC50 [1]: 28.8 ± 1.2 nM
SI RES056 [1]: 692
CC50 [2]: 19900 ± 10100 nM
SI IIIB [3]: 4584

Cc1ccnc2c1NC(=O)c1cccnc1N2C1CC1 [NVP, Nevirapine, reference compound]
EC50 [1]: > 9510 nM
CC50 at 5 days ([4]; mock-infected MT-4 cells, concentration reducing viability of mock-infected MT-4 cell cultures by 50%, MTT method, read-out: CC50): > 9510 nM
EC50 [3]: 163 ± 41.2 nM

Cc1cc(C#N)cc(C)c1Oc1nc(Nc2ccc(C#N)cc2)nc(N)c1Br [ETR, Etravirine, reference compound]
CC50 at 5 days ([4]; CC50): > 4590 nM

Cc1cc(C#N)cc(C)c1Oc1nc(NC2CCN(Cc3ccncc3)CC2)nc2c1SCC2 [Compound A4, 3,5-dimethyl-4-((2-((1-(pyridin-4-ylmethyl)piperidin-4-yl)amino)-6,7-dihydrothieno[3,2-d]pyrimidin-4-yl)oxy)benzonitrile]
EC50 [1]: 46 ± 1.9 nM
SI RES056 [1]: ≥2305
CC50 at 5 days ([4]; CC50): ≥ 106000 nM
SI IIIB [3]: ≥40104

Cc1cc(C#N)cc(C)c1Oc1nc(NC2CCN(Cc3ccc([N+](=O)[O-])cc3)CC2)nc2c1SCC2 [Compound A5, 3,5-dimethyl-4-((2-((1-(4-nitrobenzyl)piperidin-4-yl)amino)-6,7-dihydrothieno[3,2-d]pyrimidin-4-yl)oxy)benzonitrile]
EC50 [1]: 495 ± 1.3 nM
SI RES056 [1]: 12
CC50 [2]: 6180 ± 1740 nM
SI IIIB [3]: 770

Cc1cc(C#N)cc(C)c1Oc1nc(NC2CCN(Cc3ccc(S(C)(=O)=O)cc3)CC2)nc2c1COC2 [Compound B3, 3,5-dimethyl-4-((2-((1-(4-(methylsulfonyl)benzyl)piperidin-4-yl)amino)-5,7-dihydrofuro[3,4-d]pyrimidin-4-yl)oxy)benzonitrile]
EC50 [1]: 41.6 ± 4.9 nM
SI RES056 [1]: 648
CC50 at 5 days ([4]; CC50): 27000 ± 3030 nM
EC50 [3]: 1.8 nM
SI IIIB [3]: 14414

Cc1cc(C#N)cc(C)c1Oc1nc(NC2CCN(Cc3ccc(S(C)(=O)=O)cc3)CC2)nc2c1SCC2 [Compound A3, 3,5-dimethyl-4-((2-((1-(4-(methylsulfonyl)benzyl)piperidin-4-yl)amino)-6,7-dihydrothieno[3,2-d]pyrimidin-4-yl)oxy)benzonitrile]
EC50 [1]: 46.6 ± 7.8 nM
SI RES056 [1]: 257
CC50 [2]: 11900 ± 5570 nM
SI IIIB [3]: 2025

Cc1cc(C#N)cc(C)c1Oc1nc(NC2CCN(Cc3cccc(C(N)=O)c3)CC2)nc2c1CCC2 [Compound C6, 3-((4-((4-(4-cyano-2,6-dimethylphenoxy)-6,7-dihydro-5H-cyclopenta[d]pyrimidin-2-yl)amino)piperidin-1-yl)methyl)benzamide]
EC50 [1]: 941 ± 368 nM
SI RES056 [1]: 9
CC50 at 5 days ([4]; CC50): 8730 ± 3530 nM
EC50 [3]: 14.5 ± 3.6 nM
SI IIIB [3]: 599

Cc1cc(C#N)cc(C)c1Oc1nc(NC2CCN(Cc3ccncc3)CC2)nc2c1CCC2 [Compound C4, 3,5-dimethyl-4-((2-((1-(pyridin-4-ylmethyl)piperidin-4-yl)amino)-6,7-dihydro-5H-cyclopenta[d]pyrimidin-4-yl)oxy)benzonitrile]
EC50 [1]: 26800 nM
SI RES056 [1]: 9
CC50 at 5 days ([4]; CC50): 205000 ± 1130 nM
CC50 at 5 days [4, 5]: > 200000 nM
EC50 [3]: 2 ± 0.5 nM

Cc1cc(C#N)cc(C)c1Oc1nc(NC2CCN(Cc3cccc(C(N)=O)c3)CC2)nc2c1SCC2 [Compound A6, 3-((4-((4-(4-cyano-2,6-dimethylphenoxy)-6,7-dihydrothieno[3,2-d]pyrimidin-2-yl)amino)piperidin-1-yl)methyl)benzamide]
EC50 [1]: 629 nM
SI RES056 [1]: ≥355
CC50 at 5 days ([4]; CC50): ≥ 223000 nM
SI IIIB [3]: ≥8048

Cc1cc(C#N)cc(C)c1Oc1nc(NC2CCN(Cc3ccc(S(C)(=O)=O)cc3)CC2)nc2c1CSC2 [Compound D2, 3,5-dimethyl-4-((2-((1-(4-(methylsulfonyl)benzyl)piperidin-4-yl)amino)-5,7-dihydrothieno[3,4-d]pyrimidin-4-yl)oxy)benzonitrile]
EC50 [1]: 170 ± 32 nM
SI RES056 [1]: 266
CC50 [2]: 45300 ± 31100 nM
SI IIIB [3]: 11690

Cc1cc(C#N)cc(C)c1Oc1nc(NC2CCN(Cc3ccc(S(N)(=O)=O)cc3)CC2)nc2c1COC2 [Compound B1, 4-((4-((4-(4-cyano-2,6-dimethylphenoxy)-5,7-dihydrofuro[3,4-d]pyrimidin-2-yl)amino)piperidin-1-yl)methyl)benzenesulfonamide]
EC50 [1]: 38 ± 7.5 nM
SI RES056 [1]: 604
CC50 at 5 days ([4]; CC50): 22900 ± 2890 nM
EC50 [3]: 2 ± 0.2 nM
SI IIIB [3]: 11167

Cc1cc(C#N)cc(C)c1Oc1nc(NC2CCN(Cc3ccc(S(C)(=O)=O)cc3)CC2)nc2c1CCC2 [Compound C3, 3,5-dimethyl-4-((2-((1-(4-(methylsulfonyl)benzyl)piperidin-4-yl)amino)-6,7-dihydro-5H-cyclopenta[d]pyrimidin-4-yl)oxy)benzonitrile]
EC50 [1]: 54.7 ± 6.22 nM
SI RES056 [1]: >5020
CC50 at 5 days ([4]; CC50): > 274000 nM
CC50 at 5 days [4, 5]: > 200000 nM
EC50 [3]: 1.8 ± 0.7 nM

Cc1cc(C#N)cc(C)c1Oc1nc(NC2CCN(Cc3ccc([N+](=O)[O-])cc3)CC2)nc2c1CCC2 [Compound C5, 3,5-dimethyl-4-((2-((1-(4-nitrobenzyl)piperidin-4-yl)amino)-6,7-dihydro-5H-cyclopenta[d]pyrimidin-4-yl)oxy)benzonitrile]
EC50 [1]: 187 nM
SI RES056 [1]: 40
CC50 at 5 days ([4]; CC50): 7450 ± 930 nM
EC50 [3]: 4.9 ± 0.8 nM
SI IIIB [3]: 1495

Cc1cc(C#N)cc(C)c1Oc1nc(NC2CCN(Cc3cccc(C(N)=O)c3)CC2)nc2c1COC2 [Compound B6, 3-((4-((4-(4-cyano-2,6-dimethylphenoxy)-5,7-dihydrofuro[3,4-d]pyrimidin-2-yl)amino)piperidin-1-yl)methyl)benzamide]
EC50 [1]: 1030 ± 51.1 nM
CC50 at 5 days ([4]; CC50): > 250000 nM
EC50 [3]: 7.8 ± 3.4 nM

Cc1cc(C#N)cc(C)c1Oc1nc(NC2CCN(Cc3ccncc3)CC2)nc2c1COC2 [Compound B4, 3,5-dimethyl-4-((2-((1-(pyridin-4-ylmethyl)piperidin-4-yl)amino)-5,7-dihydrofuro[3,4-d]pyrimidin-4-yl)oxy)benzonitrile]
EC50 [1]: 43.1 ± 1.2 nM
SI RES056 [1]: 753
CC50 at 5 days ([4]; CC50): 32500 ± 10000 nM
EC50 [3]: 2.8 nM
SI IIIB [3]: 11414

Cc1cc(C#N)cc(C)c1Oc1nc(NC2CCN(Cc3ccc(C(N)=O)cc3)CC2)nc2c1CCC2 [Compound C2, 4-((4-((4-(4-cyano-2,6-dimethylphenoxy)-6,7-dihydro-5H-cyclopenta[d]pyrimidin-2-yl)amino)piperidin-1-yl)methyl)benzamide]
EC50 [1]: 173 ± 110 nM
SI RES056 [1]: >1448
CC50 at 5 days ([4]; CC50): > 251000 nM
SI IIIB [3]: >40984

Cc1cc(C#N)cc(C)c1Oc1nc(NC2CCN(Cc3ccc([N+](=O)[O-])cc3)CC2)nc2c1COC2 [Compound B5, 3,5-dimethyl-4-((2-((1-(4-nitrobenzyl)piperidin-4-yl)amino)-5,7-dihydrofuro[3,4-d]pyrimidin-4-yl)oxy)benzonitrile]
EC50 [1]: 511 ± 165 nM
SI RES056 [1]: ≥22
CC50 at 5 days ([4]; CC50): ≥ 11100 nM
SI IIIB [3]: ≥1497
